Measurements reported in patent publication US20260250257A1, “ANTIBACTERIAL AND SYNERGISTIC ACTIVE COMPOUND AND USE THEREOF” (EAST CHINA UNIVERSITY OF SCIENCE AND TECHNOLOGY, priority 2023, published 2026).

Tests used:
Format in all cases: cell-based
[1] = tested on: ATCC13883 strain (Klebsiella pneumoniae); assay: Checkerboard antibacterial synergistic activity test with polymyxin E (FIC); design: key: FIC≤0.5 synergy; 0.5–1 additive; 1–2 indifferent; ≥2 antagonism; conditions: combined with polymyxin E
Summary of the method: (§1)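 First, two-fold series of polymyxin E (16–0.015 μg/ml) and compound (256–4 μg/ml) were made in MH broth. Next, combinations went into a 96-well grid, bacterial liquid was added, and plates sat at 37° C. for 16 h. Finally, FIC was computed and classed (≤0.5 synergistic).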

[2] = tested on: ATCC19606 strain (Acinetobacter baumannii); assay: as above; design: key: FIC≤0.5 synergy; 0.5–1 additive; 1–2 indifferent; ≥2 antagonism; conditions: combined with polymyxin E
Summary of the method: as §1

[3] = tested on: ATCC25922 strain (Escherichia coli); assay: as above; design: key: FIC≤0.5 synergy; 0.5–1 additive; 1–2 indifferent; ≥2 antagonism; conditions: combined with polymyxin E
Summary of the method: as §1

[4] = tested on: ATCC9027 strain (Pseudomonas aeruginosa); assay: as above; design: key: FIC≤0.5 synergy; 0.5–1 additive; 1–2 indifferent; ≥2 antagonism; conditions: combined with polymyxin E
Summary of the method: as §1

[5] = tested on: ATCC13883 strain (Klebsiella pneumoniae); assay: Broth microdilution, antibacterial activity of the compound used alone
Description: (§2) The broth microdilution method was used to test the antibacterial effects of the compounds of the present invention against various Gram-negative bacterial strains when used alone.

[6] = tested on: ATCC19606 strain (Acinetobacter baumannii); assay: as above
Description: as §2

[7] = tested on: ATCC25922 strain (Escherichia coli); assay: as above
Description: as §2

[8] = tested on: ATCC9027 strain (Pseudomonas aeruginosa); assay: as above
Description: as §2

Compound	Synergistic activity (FIC value) ATCC13883 [1]	Synergistic activity (FIC value) ATCC19606 [2]	Synergistic activity (FIC value) ATCC25922 [3]	Synergistic activity (FIC value) ATCC9027 [4]	Antibacterial activity of the compound of Formula I, ATCC13883 [5]	Antibacterial activity of the compound of Formula I, ATCC19606 [6]	Antibacterial activity of the compound of Formula I, ATCC25922 [7]	Antibacterial activity of the compound of Formula I, ATCC9027 [8]
NC(N)=Nc1nc(-c2ccc(I)cc2)cs1 [Compound I-33]	0.25	0.28	0.5	0.63	256 µg/mL	256 µg/mL	256 µg/mL	256 µg/mL
NC(N)=Nc1nc(-c2cccc(C(=O)Nc3ccccc3)c2)cs1 [Compound I-110]	0.31	0.25	0.56	0.5	256 µg/mL	256 µg/mL	256 µg/mL	256 µg/mL
Cc1sc(N=C(N)N)nc1-c1ccc(Cl)cc1Oc1ccc(Cl)cc1Cl [Compound I-89]	0.13	0.02	0.15	0.18	256 µg/mL	256 µg/mL	256 µg/mL	256 µg/mL
Cc1cc(-c2csc(N=C3NCCCN3)n2)cc(C)c1O [Compound I-173]	0.38	0.75	0.5	0.63	256 µg/mL	256 µg/mL	256 µg/mL	256 µg/mL
NC(N)=Nc1nc(-c2cccc(Oc3ccc(Cl)cc3Cl)c2)cs1 [Compound I-95]	0.19	0.38	0.04	0.04	256 µg/mL	256 µg/mL	256 µg/mL	256 µg/mL
Cc1oc(N=C2NCCCN2)nc1-c1cc(NS(C)(=O)=O)ccc1-c1ccco1 [Compound I-139]	1.25	0.75	0.5	1.25	256 µg/mL	256 µg/mL	256 µg/mL	256 µg/mL
